pIC50: −log10 of the molar value. Activity calls are given as the source filed them. No cut-off for these calls is given here.
target: Ubiquitin carboxyl-terminal hydrolase 1/WD repeat-containing protein 48 (Homo sapiens, UniProt O94782); experiment: Inhibition of USP1-UAF1 complex (unknown origin) using Ub-7-amido-4-methylcoumarin as substrate incubated for 2 hrs by fluorescence based analysis; format: protein-complex assay; conditions: not given
Sequence (O94782 whole entry): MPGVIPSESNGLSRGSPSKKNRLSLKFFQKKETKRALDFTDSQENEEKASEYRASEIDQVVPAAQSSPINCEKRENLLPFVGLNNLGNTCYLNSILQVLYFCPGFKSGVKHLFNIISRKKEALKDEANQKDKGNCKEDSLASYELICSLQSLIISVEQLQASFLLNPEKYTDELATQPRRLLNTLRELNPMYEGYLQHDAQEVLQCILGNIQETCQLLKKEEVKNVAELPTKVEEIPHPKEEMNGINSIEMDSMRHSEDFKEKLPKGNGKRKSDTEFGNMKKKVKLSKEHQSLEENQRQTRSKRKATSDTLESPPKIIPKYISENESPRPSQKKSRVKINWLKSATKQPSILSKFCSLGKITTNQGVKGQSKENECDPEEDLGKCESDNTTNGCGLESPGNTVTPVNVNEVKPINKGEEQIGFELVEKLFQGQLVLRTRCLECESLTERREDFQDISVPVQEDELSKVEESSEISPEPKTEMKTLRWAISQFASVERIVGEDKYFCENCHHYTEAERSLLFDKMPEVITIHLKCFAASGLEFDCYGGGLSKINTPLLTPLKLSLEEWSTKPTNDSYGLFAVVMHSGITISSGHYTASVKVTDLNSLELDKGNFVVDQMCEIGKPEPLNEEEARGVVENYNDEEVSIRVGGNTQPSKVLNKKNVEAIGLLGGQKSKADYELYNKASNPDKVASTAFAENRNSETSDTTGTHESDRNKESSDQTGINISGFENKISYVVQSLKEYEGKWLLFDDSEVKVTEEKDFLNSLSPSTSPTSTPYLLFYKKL
Sequence (Q8TAF3 whole entry, further chain): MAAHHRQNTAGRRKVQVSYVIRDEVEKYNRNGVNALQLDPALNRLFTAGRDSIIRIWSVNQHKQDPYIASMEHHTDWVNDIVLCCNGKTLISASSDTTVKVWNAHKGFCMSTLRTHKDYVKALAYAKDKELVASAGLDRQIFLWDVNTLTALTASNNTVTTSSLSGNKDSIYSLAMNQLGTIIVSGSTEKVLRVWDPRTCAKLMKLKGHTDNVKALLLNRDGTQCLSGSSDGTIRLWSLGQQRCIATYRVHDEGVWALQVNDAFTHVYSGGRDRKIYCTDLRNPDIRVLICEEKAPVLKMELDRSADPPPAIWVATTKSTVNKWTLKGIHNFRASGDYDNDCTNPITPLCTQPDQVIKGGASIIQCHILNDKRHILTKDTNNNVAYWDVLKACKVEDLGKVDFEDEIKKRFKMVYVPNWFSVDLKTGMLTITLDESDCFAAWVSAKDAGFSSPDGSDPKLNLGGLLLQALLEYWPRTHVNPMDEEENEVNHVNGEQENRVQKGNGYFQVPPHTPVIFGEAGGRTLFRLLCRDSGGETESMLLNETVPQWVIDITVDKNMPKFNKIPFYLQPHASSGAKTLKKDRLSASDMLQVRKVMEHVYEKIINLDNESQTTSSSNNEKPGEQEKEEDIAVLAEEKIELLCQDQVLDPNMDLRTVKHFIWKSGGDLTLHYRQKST

pIC50	SMILES
< 5.00	CC(C)n1cc(C(F)(F)F)nc1-c1ccc(Cn2c(=O)ccc3cnc(-c4ccn(C)n4)nc32)cc1
7.63	COc1cccc(F)c1-c1ncc2ccc(=O)n(Cc3ccc(-c4nc(C(F)(F)F)cn4C(C)C)cc3)c2n1
6.61	COc1ncnc(C2CC2)c1-c1ncc2ccc(=O)n(Cc3c(F)cc(-c4nc(C(F)(F)F)cn4C(C)C)cc3F)c2n1
6.50	COc1cc(-c2nc(C(F)(F)F)cn2C(C)C)ccc1Cn1c(=O)ccc2cnc(-c3c(OC)ncnc3C3CC3)nc21
7.22	COc1ncnc(C2CC2)c1-c1ncc2ccc(=O)n(Cc3ccc(-c4cccc(C(F)(F)F)n4)cc3)c2n1
7.73	COc1cccc(OC)c1-c1ncc2ccc(=O)n(Cc3ccc(-c4nc(C(F)(F)F)cn4C(C)C)cc3)c2n1
< 5.00	COc1ccccc1-c1ncc2ccc(=O)n(Cc3ccc(-c4nc(C(F)(F)F)cn4C(C)C)cc3)c2n1
7.95	COc1ncnc(C2CC2)c1-c1ncc2ccc(=O)n(Cc3ccc(-c4nc(C(F)(F)F)cn4CC4CC4)cc3)c2n1
7.64	COc1ncnc(C2CC2)c1-c1ncc2ccc(=O)n(Cc3ccc(-c4nc(C(F)(F)F)cn4C(C)C)c(F)c3)c2n1
7.08	COc1ncnc(C2CC2)c1-c1ncc2ccc(=O)n(C(C)c3ccc(-c4nc(C(F)(F)F)cn4C(C)C)cc3)c2n1 (centres undefined)
< 5.00	COc1ncnc(C2CC2)c1-c1ncc2ccc(=O)n(Cc3ccc(-c4ccc(C(F)(F)F)cn4)cc3)c2n1

The remaining lines, values behind:

SMILES	pIC50
CC(C)n1cc(C(F)(F)F)nc1-c1ccc(Cn2c(=O)ccc3cnc(-c4ccccc4C(F)(F)F)nc32)cc1	6.71
CC(C)c1ccccc1-c1ncc2ccc(=O)n(Cc3ccc(-c4nc(C(F)(F)F)cn4C(C)C)cc3)c2n1	7.47
CC(C)n1cc(C(F)(F)F)nc1-c1ccc(Cn2c(=O)ccc3cnc(-c4cccc5ncsc45)nc32)cc1	< 5.00
CC(C)n1cc(C(F)(F)F)nc1-c1ccc(Cn2c(=O)ccc3cnc(-c4ccccc4Cl)nc32)cc1	6.14
CC(C)n1cc(C(F)(F)F)nc1-c1ccc(Cn2c(=O)ccc3cnc(-c4ccccc4F)nc32)cc1	6.08
Cc1cnn(C(C)C)c1-c1ncc2ccc(=O)n(Cc3ccc(-c4nc(C(F)(F)F)cn4C(C)C)cc3)c2n1	< 5.00
Cc1cnn(C)c1-c1ncc2ccc(=O)n(Cc3ccc(-c4nc(C(F)(F)F)cn4C(C)C)cc3)c2n1	< 5.00
CC(C)n1cc(C(F)(F)F)nc1-c1ccc(Cn2c(=O)ccc3cnc(-c4c(Cl)cnn4C(C)C)nc32)cc1	< 5.00
CC(C)n1cc(C(F)(F)F)nc1-c1ccc(Cn2c(=O)ccc3cnc(-c4cccc5cnn(C)c45)nc32)cc1	< 5.00
CC(C)n1cc(C(F)(F)F)nc1-c1ccc(Cn2c(=O)ccc3cnc(-c4c(Cl)cccc4Cl)nc32)cc1	< 5.00
CC(C)n1cc(C(F)(F)F)nc1-c1ccc(Cn2c(=O)ccc3cnc(-c4c(F)cccc4Cl)nc32)cc1	< 5.00
CC(C)n1cc(C(F)(F)F)nc1-c1ccc(Cn2c(=O)ccc3cnc(-c4ccnn4C)nc32)cc1	< 5.00
Cc1ccccc1-c1ncc2ccc(=O)n(Cc3ccc(-c4nc(C(F)(F)F)cn4C(C)C)cc3)c2n1	6.29
CC(C)n1cc(C(F)(F)F)nc1-c1ccc(Cn2c(=O)ccc3cnc(-c4ccccc4OC(F)(F)F)nc32)cc1	7.40

target: T1, Ubiquitin carboxyl-terminal hydrolase 1/WD repeat-containing protein 48 (Homo sapiens) (UniProt O94782+Q8TAF3); experiment: Inhibition of USP1-UAF1 complex (unknown origin) using Ub-7-amido-4-methylcoumarin as substrate at 10 uM incubated for 2 hrs by fluorescence based analysis relative to control; format: protein-complex assay; conditions: not given

inhibition [%]	SMILES
63.9	COc1ncccc1-c1ncc2ccc(=O)n(Cc3ccc(-c4nc(C(F)(F)F)cn4C(C)C)cc3)c2n1
54.6	COc1ncnc(C2CC2)c1-c1ncc2ccc(=O)n(Cc3ccc(-n4ccnn4)cc3)c2n1
77.9	COc1ncnc(C2CC2)c1-c1ncc2ccc(=O)n(Cc3ccc(-c4nc(C(F)(F)F)cn4C(C)C)c(C)c3)c2n1
71.6	COc1ncnc(C2CC2)c1-c1ncc2ccc(=O)n(Cc3ccc(-n4cccc4)cc3)c2n1
56.9	COc1ncnc(C2CC2)c1-c1ncc2ccc(=O)n(Cc3ccc(-n4ccnc4)cc3)c2n1
56.6	CC(C)n1cc(C(F)(F)F)nc1-c1ccc(Cn2c(=O)ccc3cnc(-c4ccnn4C(C)C)nc32)cc1

test system: NCI-H1299; experiment: Inhibition of colony formation in human NCI-H1299 cells at 0.5 uM measured after 7 days by SRB staining based assay relative to control; format: functional; conditions: NCI-H1299, 168 h, time 7 day

SMILES	inhibition at 0.5 µM [%]
COc1cccc(OC)c1-c1ncc2ccc(=O)n(Cc3ccc(-c4nc(C(F)(F)F)cn4C(C)C)cc3)c2n1	70
COc1ncnc(C2CC2)c1-c1ncc2ccc(=O)n(Cc3ccc(-n4nc(C(F)(F)F)cc4C)cc3)c2n1	70

test system: MDA-MB-436; experiment: Induction of cell cycle arrest in human MDA-MB-436 cells assessed as increase in cells at S phase at 1 uM incubated for 24 hrs by PI staining based flow cytometry analysis; format: functional; conditions: not given

SMILES	Activity
COc1ncnc(C2CC2)c1-c1ncc2cnn(Cc3ccc(-c4nc(C(F)(F)F)cn4C(C)C)cc3)c2n1	Active
COc1cccc(OC)c1-c1ncc2ccc(=O)n(Cc3ccc(-c4nc(C(F)(F)F)cn4C(C)C)cc3)c2n1	Active
COc1ncnc(C2CC2)c1-c1ncc2ccc(=O)n(Cc3ccc(-n4nc(C(F)(F)F)cc4C)cc3)c2n1	Active

test system: Olaparib-resistant MDA-MB-436; experiment: Inhibition of colony formation in human Olaparib-resistant MDA-MB-436 cell assessed as cell killing at 100 nM measured after 7 days by SRB staining based assay; format: functional; conditions: time 7.0 day

SMILES	inhibition
O=C(c1cc(Cc2n[nH]c(=O)c3ccccc23)ccc1F)N1CCN(C(=O)C2CC2)CC1	inactive

target: T1, Ubiquitin carboxyl-terminal hydrolase 1/WD repeat-containing protein 48 (Homo sapiens); conditions: NCI-H1299, dose 20-500 nM, time 24.0 hrs

inhibition	SMILES
Dose-Dependent Effect	COc1cccc(OC)c1-c1ncc2ccc(=O)n(Cc3ccc(-c4nc(C(F)(F)F)cn4C(C)C)cc3)c2n1
Dose-Dependent Effect	COc1ncnc(C2CC2)c1-c1ncc2ccc(=O)n(Cc3ccc(-n4nc(C(F)(F)F)cc4C)cc3)c2n1
